In PMC8196580, “Identification of Kaurane-Type Diterpenes as Inhibitors of Leishmania Pteridine Reductase I” (Molecules, 2021):
Where two headings read alike, the source gives them in different places.

Assays:
[1] = test system: L. major; test: ChEMBL dataset of pIC50 values against L. major used for the RF model (Table S1); assay type: cell-based, Leishmania major; note: call rule not given here
[2] = test system: L. major; set-up: method as in ChEMBL; conditions: ref ChEMBL, cited from earlier work
[3] = Active/Inactive class assigned to the ChEMBL pIC50 value for Random forest model construction, ref ChEMBL
[4] = ChemBL structures with pIC50 values used for Random forest model construction, L. major
[5] = Active/Inactive class assigned to ChemBL structures for Random forest model construction (Table S1)
[6] = ChemBL structures with pIC50 values used for Random forest model construction (Table S1)

C[C@]12CC[C@H](O)C[C@@H]1CC[C@@H]1[C@@H]2CC[C@@]2(C)[C@H]1CC[C@@H]2[C@@](C)(O)c1ccncc1 [CHEMBL1214241]
Outcome [1, 3]: Inactive
pIC50 Value [2, 4]: 4.92

CCOC(=O)C1=C(C)NC(=S)NC1c1ccc(C)cc1 (centres unmarked) [CHEMBL3786732]
Outcome [1, 5]: Active
pIC50 Value [2, 6]: 5.66

CN(C)c1ccc2c(Nc3ccccc3)c3ccc(N(C)C)cc3nc2c1 [CHEMBL37644]
Outcome [1, 5]: Active
pIC50 Value [2, 6]: 7.52

COc1ccccc1-c1nnc(-c2ccc(C(=O)N/N=C/c3ccc(Cl)cc3Cl)cc2)o1 [CHEMBL4068809]
Outcome [1, 3]: Active
pIC50 Value [2, 4]: 5.29

COc1ccccc1-c1nnc(-c2ccc(C(=O)N/N=C/c3ccc(O)cc3O)cc2)o1 [CHEMBL4087969]
Outcome [1, 5]: Active
pIC50 Value [2, 6]: 5.42

COc1ccc(CNC(=N)c2ccc(N3CCN(c4nnc(-c5ccc([N+](=O)[O-])o5)s4)CC3)cc2)cc1.Cl [CHEMBL1783207]
Outcome [1, 3]: Inactive
pIC50 Value [2, 4]: 4.10

O=[N+]([O-])c1ccc2ncnc(Nc3cccc(Br)c3)c2c1 [CHEMBL329161]
Outcome [1, 3]: Active
pIC50 Value [2, 4]: 5.04

COC(=O)c1c(O)c(C#N)c2n(c1=O)CCc1cc(OC)c(OC)cc1-2 [CHEMBL1256930]
Outcome [1, 3]: Inactive
pIC50 Value [2, 4]: 4.28

CCN1CSC(=S)N(C(C)c2ccccc2)C1 (centres unmarked) [CHEMBL4286479]
Outcome [1, 3]: Inactive
pIC50 Value [2, 4]: 4.34

O=C(/C=C/c1ccc(-n2ccnc2)cc1)c1ccccc1 [CHEMBL571178]
Outcome [1, 5]: Active
pIC50 Value [2, 6]: 5.48

COc1ccccc1-c1nnc(-c2ccc(C(=O)N/N=C/c3ccc(O)c(O)c3)cc2)o1 [CHEMBL4092817]
Outcome [1, 5]: Active
pIC50 Value [2, 6]: 6.02

Cn1c([N+](=O)[O-])cnc1-c1nnc(N2CCN(C(=O)c3ccccc3)CC2)s1 [CHEMBL482463]
Outcome [1, 3]: Inactive
pIC50 Value [2, 4]: 4.98

O=[N+]([O-])c1ccc(-c2nnc(NCc3cn(Cc4cccc(Cl)c4)nn3)s2)o1 [CHEMBL1951526]
Outcome [1, 3]: Inactive
pIC50 Value [2, 4]: 3.97

COc1ccccc1NC(=O)CCC(=O)O [CHEMBL1605594]
Outcome [1, 5]: Active
pIC50 Value [2, 6]: 7.81

Cc1cc(C)nc(SCc2nn3c(-c4ccccc4)nnc3s2)n1 [CHEMBL1256856]
Outcome [1, 3]: Inactive
pIC50 Value [2, 4]: 4.00

CC(C)Oc1cc(NC(=N)c2ccccn2)ccc1-c1ccc(-c2ccc(NC(=N)c3ccccn3)cc2OC(C)C)o1 [CHEMBL1275764]
Outcome [1, 5]: Active
pIC50 Value [2, 6]: 7.85

Cc1ccc2cc(/C=C/C(=O)c3cc(C)sc3C)c(Cl)nc2c1 [CHEMBL1940854]
Outcome [1, 5]: Active
pIC50 Value [2, 6]: 5.74

Cc1ccc2cc(C3CC(c4cc(Cl)sc4Cl)=NN3)c(Cl)nc2c1 (centres unmarked) [CHEMBL2236142]
Outcome [1, 5]: Active
pIC50 Value [2, 6]: 5.75

Cc1cccc2cc(/C=C/C(=O)c3sccc3Cl)c(Cl)nc12 [CHEMBL1940866]
Outcome [1, 5]: Active
pIC50 Value [2, 6]: 5.65

c1ccc(-c2nc3cnccn3c2-c2ccncc2)cc1 [CHEMBL3634356]
Outcome [1, 3]: Inactive
pIC50 Value [2, 4]: 4.70

COc1ccccc1-c1nnc(-c2ccc(C(=O)N/N=C/c3ccc(O)cc3)cc2)o1 [CHEMBL4085064]
Outcome [1, 3]: Active
pIC50 Value [2, 4]: 5.13

COc1ccccc1-c1nnc(-c2ccc(C(=O)N/N=C/c3cc(O)ccc3O)cc2)o1 [CHEMBL4059674]
Outcome [1, 5]: Active
pIC50 Value [2, 6]: 5.35

CN(C)Cc1c(O)ccc2c(=O)c(-c3cnn(-c4ccccc4)c3)coc12 [CHEMBL1256931]
Outcome [1, 3]: Inactive
pIC50 Value [2, 4]: 4.13

Fc1ccccc1-c1nc2ccccn2c1-c1ccccc1 [CHEMBL2151876]
Outcome [1, 3]: Inactive
pIC50 Value [2, 4]: 4.41

Cc1cccc2nc(-c3ccc(C(=O)N/N=C/c4cccc(O)c4O)cc3)[nH]c12 [CHEMBL3317782]
Outcome [1, 3]: Inactive
pIC50 Value [2, 4]: 4.42

NP(=O)(OCc1ccc([N+](=O)[O-])cc1Cl)N(CCCl)CCCl (centres unmarked) [CHEMBL1257017]
Outcome [1, 5]: Active
pIC50 Value [2, 6]: 5.51

COc1ccc(-c2csc3c2C2=NCCN2C=N3)cc1OC [CHEMBL1256890]
Outcome [1, 3]: Inactive
pIC50 Value [2, 4]: 4.00

Cc1ccc2cc(C3CC(c4sccc4Cl)=NN3)c(Cl)nc2c1 (centres unmarked) [CHEMBL2236140]
Outcome [1, 5]: Active
pIC50 Value [2, 6]: 5.67

COc1cc(OC)c2c(C)[n+](-c3ccc4ncccc4c3)c(C)cc2c1.O=C([O-])C(F)(F)F [CHEMBL481907]
Outcome [1, 3]: Inactive
pIC50 Value [2, 4]: 4.00

Cc1csc(C(=O)/C=C/c2cc3ccc(C)cc3nc2Cl)c1 [CHEMBL1940852]
Outcome [1, 5]: Active
pIC50 Value [2, 6]: 5.60

O=C(/C=C/c1ccc(-n2ccnc2)cc1)c1ccc(Cl)cc1 [CHEMBL569356]
Outcome [1, 5]: Active
pIC50 Value [2, 6]: 5.53
